Results: US20120251628A1, “COMPOSITIONS AND METHODS FOR TREATMENT OF CANCER” (priority 2011, published 2012)

How the values were obtained:
α-tubulin = assay: Western blot of total tubulin protein from HUVECs; format: cell-based, Human; details: 5, 10, 20 and 50 uM, 24 and 48 hours, higher concentration
Experimental: (§1) To analyze the change in the overall expression of tubulin, the total amount of tubulin protein was kept to identify by western blotting. HUVECs were cultured in F25 culture flasks containing F-12K (Sigma) medium supplemented with 10% FBS and endothelial cell growth supplement (ECGS, E2759, Sigma). After cultivation for 24 hours, the cells were treated with sodium meta arsenite at concentrations of 5 uM, 10 uM, 20 uM and 50 uM. At 24 hours and 48 hours after treatment, the cells were collected and washed with phosphate buffered saline (PBS) solution. The washed cells were reacted with THF solution (50 mM Tris-Hcl, pH 7.5, 100 mM NaCl, 2 mM EDTA, 1% NP-40, protease inhibitor) at 4° C. for 15 minutes and then broken down or destroyed by use of an ultrasonic cell crusher before SDS (0.5%) was added. Protein from the samples was assayed by using a BCA protein kit (Thermo, 23227) before the same amount of protein (3 μg) was mixed with protein sample buffer. […] warmed up in a water bath in boiling water at 100° C. for five minutes. SDS-PAGE was conducted using a 10% polyacrylamide gel. At the end of electrophoresis, the gel was transferred to nitrocellulose membrane in semi-dry method at room temperature at 220 mA for 40 minutes. […]

β-tubulin = assay: Western blot of total tubulin protein from HUVECs; format: cell-based, Human; details: 5, 10, 20 and 50 uM, 24 and 48 hours, higher concentration
Experimental: as §1

Compound: O=[As][O-].[Na+] [sodium meta arsenite]
- protein level of α-tubulin (α-tubulin): reduced the protein level
- protein level of β-tubulin (β-tubulin): reduced the protein level
